Measurements: patent US9684238B2, “Fluorene-type compound, photopolymerization initiator comprising said fluorene-type compound, and photosensitive composition containing said photopolymerization initiator” (TOKYO OHKA KOGYO CO., LTD., priority 2012, dated 2017)

What was measured:
[1] = Decomposition point by thermal analysis (TG-DTA); assay type: physicochemical; conditions: 5.0 mg
Experimental: The compounds 1, 2, 4, 6, 8, 9, 11, 12, 13, 15, 16, D-1, D-3, D-4, D-7, D-8, D-9, D-12, D-14, D-15, D-20, C-1, and C-2 were each subjected to measurement with a thermal analysis apparatus (TG-DTA) (manufactured by Rigaku Corporation, trade name: “Thermo Plus EVO TG 8120”) by using 5.0 mg thereof.

[2] = Absorption coefficient (absorbance of 0.001% solution in tetrahydrofuran); assay type: physicochemical; conditions: for Λ max (absorption maximum wavelength): 0.001% (wt/vol) in tetrahydrofuran, from 280 nm to 400 nm; for Absorption coefficient at 365 nm / Absorption coefficient at Λ max: 0.001% (wt/vol) solution in tetrahydrofuran
Procedure, shortened: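 Absorbance of a 0.001% (wt/vol) solution in tetrahydrofuran recorded by spectrophotometer. Absorption maximum wavelength (λmax) taken from the spectrum within 280–400 nm.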

[3] = Evaluation 3: 20-μm pattern line width of black photosensitive composition; conditions: black composition (carbon black, cardo resin), initiator 0.4 mmol
Procedure, shortened: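 Composition spin-coated on glass to 1.0 μm dry thickness, dried 90 °C for 10 min, exposed at 10–80 mJ/cm^2 via high-pressure mercury lamp through 20 μm negative mask, developed in 0.1 wt % TMAH, rinsed. Line width of remaining cured film measured; larger width means higher sensitivity.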

[4] = Evaluation 1: 20-μm pattern line width of transparent photosensitive composition; conditions: for 20-μm pattern line width: transparent composition, initiator 0.4 mmol
[5] = as above; conditions: initiator 0.4 mmol, exposure energy quantity 30 mJ/cm^2
[6] = Solubility in PGME, PGMEA and ethyl lactate; assay type: physicochemical; conditions: for Solubility Ethyl lactate: in 100 parts by weight of ethyl lactate; for Solubility Ethyl lactate / Solubility PGMEA / Solubility PGME: room temperature; for Solubility PGMEA: in 100 parts by weight of propylene glycol monomethyl ether acetate; for Solubility PGME: in 100 parts by weight of propylene glycol monomethyl ether; for solubility (in words): photopolymerization initiator containing the compound
[7] = Transmittance of transparent cured film; assay type: physicochemical; conditions: for Average transmittance (700 nm to 400 nm) Transparent cured film / Transmittance (400 nm) Transparent cured film: cured at exposure energy quantity 80 mJ/cm^2
Procedure, shortened: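 Films cured at 80 mJ/cm^2 exposure, otherwise prepared as in the earlier film evaluation. Spectrophotometer read in quartz cell, 1 cm path, giving transmittance (%) at 400 nm and average transmittance (%) over 400–700 nm.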

[8] = Average transmittance of composition; assay type: physicochemical; conditions: photosensitive composition, quartz cell, optical path length 1 cm
Experimental: The average transmittance (%) of each of the photosensitive resin compositions obtained in Examples 1 to 9, Examples 2-1 to 2-10, and Comparative Examples 1 and 2 in the range of from 400 nm to 700 nm was measured with a spectrophotometer (manufactured by Hitachi High-Technologies Corporation, trade name: “U-3900H”, quartz cell, optical path length; 1 cm).

[9] = exposure energy quantity 5 mJ/cm^2
[10] = exposure energy quantity 10 mJ/cm^2
[11] = exposure energy quantity 20 mJ/cm^2
[12] = exposure energy quantity 40 mJ/cm^2
[13] = photopolymerization initiator containing the compound

| Structure (SMILES) | Decomposition point [1] | Λ max (absorption maximum wavelength) [2] | Absorption coefficient at 365 nm [2] | Absorption coefficient at Λ max [2] | 20-μm pattern line width ([3]; 10 mJ/cm^2) | 20-μm pattern line width ([3]; 20 mJ/cm^2) | 20-μm pattern line width ([3]; 40 mJ/cm^2) | 20-μm pattern line width ([3]; 60 mJ/cm^2) | 20-μm pattern line width ([3]; 80 mJ/cm^2) | 20-μm pattern line width [4, 9] | 20-μm pattern line width [4, 10] | 20-μm pattern line width [4, 11] | 20-μm pattern line width [4, 12] | 20-μm pattern line width [5] | Solubility Ethyl lactate [6] | Solubility PGMEA [6] | Solubility PGME [6] | Average transmittance (700 nm to 400 nm) Transparent cured film [7] | Transmittance (400 nm) Transparent cured film [7] | Average transmittance (700 nm to 400 nm) Solution [8] | further results |
| --- | --- | --- | --- | --- | --- | --- | --- | --- | --- | --- | --- | --- | --- | --- | --- | --- | --- | --- | --- | --- | --- |
| CCCC1(CCC)c2cc(C(=O)c3ccc([N+](=O)[O-])cc3)ccc2-c2ccc(C(=NOC(C)=O)C(C)C)cc21 (mixture of isomers) [Compound D-8] | 182.6 °C | 335.5 nm | 10.9 mL/mg/cm | 52.1 mL/mg/cm | 18.7 | 18.7 | 20.0 | 20.7 | 21.1 | 19.1 | 19.7 | 20.0 | 21.9 | 21.3 | A (10 Parts by weight or more of the photopolymerization initiator is dissolved.) | A (10 Parts by weight or more of the photopolymerization initiator is dissolved.) | A (10 Parts by weight or more of the photopolymerization initiator is dissolved.) | 100.0% | 98.0% | 87.0% | solubility (in words) [6]: additionally excellent solubility; transparency of photosensitive composition and formed product (in words) [7, 13]: additionally excellent transparency |
| CCCC1(CCC)c2cc(C(=O)c3ccc([N+](=O)[O-])cc3)ccc2-c2ccc(C(C)=NOC(C)=O)cc21 [Compound D-7] | 250.3 °C | 341.5 nm | 21.9 mL/mg/cm | 62.9 mL/mg/cm |  |  |  |  |  | 19.3 | 20.2 | 20.8 | 22.6 | 21.4 | D (Less than 2 parts by weight of the photopolymerization initiator is dissolved.) | D (Less than 2 parts by weight of the photopolymerization initiator is dissolved.) | D (Less than 2 parts by weight of the photopolymerization initiator is dissolved.) | 99.3% | 96.1% | 86.0% |  |
| CCCC1(CCC)c2cc(C(CCCCl)=NOC(C)=O)ccc2-c2ccc([N+](=O)[O-])cc21 [Compound D-12] | 174.7 °C | 345.5 nm | 39.0 mL/mg/cm | 58.4 mL/mg/cm | 19.1 | 20.5 | 21.6 | 22.5 | 22.7 | 19.8 | 20.6 | 21.4 | 22.3 |  | B (An amount in the range of from 5 parts by weight or more to less than 10 parts by weight of the photopolymerization initiator is dissolved.) | A (10 Parts by weight or more of the photopolymerization initiator is dissolved.) | A (10 Parts by weight or more of the photopolymerization initiator is dissolved.) | 99.7% | 93.6% | 79.9% | sensitivity to the active energy ray (in words) [4, 13]: additionally high sensitivity to the active energy ray; 20-μm pattern line width ([4]; exposure energy quantity 80 mJ/cm^2): 23.3; solubility (in words) [6]: additionally excellent solubility |
